Converted amounts (≈) assume the structure as drawn.
Key:
Test in all cases: MIC against standard strains (agar dilution)
Format in all cases: cell-based
[1] = tested on: Acinetobacter calcoaceticu 15473; conditions: Acinetobacter calcoaceticu 15473; Mueller-Hinton agar, 20 hours at 37°C; read-out: MIC
In short: (§1)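 Agar dilution, Mueller-Hinton; 2-fold compound series; inoculum 10^7 cfu/mℓ; 37°C, 20 h; MIC read as lowest inhibitory concentration.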

[2] = tested on: Citrobacter diversus 2046E; conditions: Citrobacter koseri; Citrobacter diversus 2046E; Mueller-Hinton agar, 20 hours at 37°C; read-out: MIC
In short: as §1

[3] = tested on: Citrobacter freundii 8090; conditions: Citrobacter freundii 8090; Mueller-Hinton agar, 20 hours at 37°C; read-out: MIC
In short: as §1

[4] = tested on: Enterobacter cloacae IND+VE 1194E; conditions: Enterobacter cloacae IND+VE 1194E; Mueller-Hinton agar, 20 hours at 37°C; read-out: MIC
In short: as §1

Enterobacter cloacae P99 = conditions: Enterobacter cloacae P99; Mueller-Hinton agar, 20 hours at 37°C; read-out: MIC
In short: as §1

[5] = tested on: Enterococcus faecalis 29212; conditions: Enterococcus faecalis 29212; Mueller-Hinton agar, 20 hours at 37°C; read-out: MIC
In short: as §1

Escherichia coli 10536 = conditions: Escherichia coli 10536; Mueller-Hinton agar, 20 hours at 37°C; read-out: MIC
In short: as §1

Escherichia coli 3190Y = conditions: Escherichia coli, 3190Y, 20 h
In short: as §1

Escherichia coli 851E = conditions: Escherichia coli, 851E, 20 h
In short: as §1

[6] = tested on: Escherichia coli TEM1 1193E; conditions: TEM11193E, 20 h
In short: as §1

[7] = tested on: Escherichia coli TEM3 3455E; conditions: TEM33455E, 20 h
In short: as §1

[8] = tested on: Escherichia coli TEM9 2639E; conditions: TEM92639E; Escherichia coli TEM9 2639E; Mueller-Hinton agar, 20 hours at 37°C; read-out: MIC
In short: as §1

[9] = tested on: Klebsiella aerogenes K1+ 1082E; conditions: Klebsiella aerogenes K1+ 1082E; Mueller-Hinton agar, 20 hours at 37°C; read-out: MIC
In short: as §1

[10] = tested on: Klebsiella aerogenes SHV-1 1976E; conditions: Klebsiella aerogenes, 20 h
In short: as §1

[11] = tested on: Klebsiella pneumoniae 2011E; conditions: Klebsiella pneumoniae 2011E; Mueller-Hinton agar, 20 hours at 37°C; read-out: MIC
In short: as §1

[12] = tested on: Moraxella catarrhalis 25240; conditions: Moraxella catarrhalis 25240; Mueller-Hinton agar, 20 hours at 37°C; read-out: MIC
In short: as §1

[13] = tested on: Moraxella catarrhalis C2431; conditions: Moraxella catarrhalis C2431; Mueller-Hinton agar, 20 hours at 37°C; read-out: MIC
In short: as §1

[14] = tested on: Morganella morganii 1375E; conditions: Morganella morganii 1375E; Mueller-Hinton agar, 20 hours at 37°C; read-out: MIC
In short: as §1

Proteus vulgaris 6059 = conditions: Proteus vulgaris 6059; Mueller-Hinton agar, 20 hours at 37°C; read-out: MIC
In short: as §1

[15] = tested on: Pseudomonas aeruginosa 1912E; conditions: Pseudomonas aeruginosa 1912E; Mueller-Hinton agar, 20 hours at 37°C; read-out: MIC
In short: as §1

[16] = tested on: Pseudomonas aeruginosa 6065Y; conditions: Pseudomonas aeruginosa 6065Y; Mueller-Hinton agar, 20 hours at 37°C; read-out: MIC
In short: as §1

[17] = tested on: Salmonella typhimurium 14028; conditions: Salmonella enterica; Salmonella typhimurium 14028; Mueller-Hinton agar, 20 hours at 37°C; read-out: MIC
In short: as §1

[18] = tested on: Serratia marcescens 1826E; conditions: Serratia marcescens 1826E; Mueller-Hinton agar, 20 hours at 37°C; read-out: MIC
In short: as §1

[19] = tested on: Staphylococcus aureus 241; conditions: Staphylococcus aureus 241; Mueller-Hinton agar, 20 hours at 37°C; read-out: MIC
In short: as §1

[20] = tested on: Staphylococcus aureus 6538p; conditions: Staphylococcus aureus 6538p; Mueller-Hinton agar, 20 hours at 37°C; read-out: MIC
In short: as §1

Staphylococcus aureus 77 = conditions: Staphylococcus aureus 77; Mueller-Hinton agar, 20 hours at 37°C; read-out: MIC
In short: as §1

[21] = tested on: Staphylococcus aureus giorgio; conditions: Staphylococcus aureus giorgio; Mueller-Hinton agar, 20 hours at 37°C; read-out: MIC
In short: as §1

[22] = tested on: Staphylococcus epidermidi 887E; conditions: Staphylococcus epidermidi 887E; Mueller-Hinton agar, 20 hours at 37°C; read-out: MIC
In short: as §1

Compound: CO/N=C(\C(=O)NC1C(=O)N2C(C(=O)O)=C(Sc3cc(N)nc(N)n3)CSC12)c1csc(N)n1 (stereo not shown) [Compound No. 25, 7-[(Z)-2-(2-amino-thiazol-4-yl)-2-methoxyimino-acetylamino]-3-(2,6-diamino-pyrimidin-4-ylsulfanyl)-8-oxo-5-thia-1-azabicyclo[4,2,0]oct-2-ene-2-carboxylic acid]
- MIC [1]: 64 µg/mL (≈ 122 µM)
- MIC [2]: > 64 µg/mL
- MIC [3]: 1 µg/mL (≈ 1.91 µM)
- MIC [4]: > 64 µg/mL
- MIC (Enterobacter cloacae P99): > 64 µg/mL
- MIC [5]: > 64 µg/mL
- MIC (Escherichia coli 10536): 0.063 µg/mL (≈ 0.12 µM)
- MIC (Escherichia coli 3190Y): 0.031 µg/mL (≈ 0.0592 µM)
- MIC (Escherichia coli 851E): 0.063 µg/mL (≈ 0.12 µM)
- MIC [6]: 0.25 µg/mL (≈ 0.477 µM)
- MIC [7]: 8 µg/mL (≈ 15.3 µM)
- MIC [8]: 32 µg/mL (≈ 61.1 µM)
- MIC [9]: > 64 µg/mL
- MIC [10]: 0.25 µg/mL (≈ 0.477 µM)
- MIC [11]: 0.5 µg/mL (≈ 0.955 µM)
- MIC [12]: ≤ 0.008 µg/mL
- MIC [13]: ≤ 0.008 µg/mL
- MIC [14]: 0.13 µg/mL (≈ 0.248 µM)
- MIC (Proteus vulgaris 6059): 0.016 µg/mL (≈ 0.0306 µM)
- MIC [15]: 16 µg/mL (≈ 30.6 µM)
- MIC [16]: 64 µg/mL (≈ 122 µM)
- MIC [17]: 0.25 µg/mL (≈ 0.477 µM)
- MIC [18]: 2 µg/mL (≈ 3.82 µM)
- MIC [19]: 8 µg/mL (≈ 15.3 µM)
- MIC [20]: 1 µg/mL (≈ 1.91 µM)
- MIC (Staphylococcus aureus 77): 4 µg/mL (≈ 7.64 µM)
- MIC [21]: 0.5 µg/mL (≈ 0.955 µM)
- MIC [22]: 8 µg/mL (≈ 15.3 µM)
